Assay results: patent US9309242B2, “Substituted pyrido[2,3-b]pyrazines as FGFR kinase inhibitors” (priority 2011, dated 2016)
pIC50: −log10 of the molar value.

What was measured:
FGFR1 (h) = FGFR1 (h) (Homo sapiens, UniProt P11362); test: FGFR1 (enzymatic assay), TR-FRET; assay type: biochemical; details: read-out: FGFR 1 pIC50 (converted)
FGFR3 (h) = FGFR3 (h) (Homo sapiens, UniProt P22607); test: FGFR3 (enzymatic assay), TR-FRET; assay type: biochemical; details: read-out: FGFR 3 pIC50 (converted)
From the text: Time-Resolved Fluorescence Resonance Energy Transfer (TR-FRET) signal (ex340 nm.

FGFR4 (h) = FGFR4 (h) (Homo sapiens, UniProt P22455); test: FGFR4 (enzymatic assay), TR-FRET; assay type: biochemical; details: FGFR 4 pIC50, enzymatic assay
KDR (h) = KDR (h) (Homo sapiens, UniProt P35968); test: KDR (VEGFR2) (enzymatic assay), TR-FRET; assay type: biochemical; details: read-out: VEGFR 2 (KDR) pIC50 (converted)
In short: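 Human KDR (150 ng/ml) was reacted with 500 nM Btn-Flt3 and 3 μM ATP in 50 mM HEPES pH 7.5, 6 mM MnCl2, 1 mM DTT, 0.1 mM Na3VO4, 0.01% Triton X-100, 1% DMSO, for 120 min at room temperature. Phosphorylation detected by TR-FRET (Eu-anti-P-Tyr/SA-XL665, 60 min), read in RFU.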

[1] = molecular target: T1, Ba/F3-FGFR1-transfected cells (Homo sapiens, UniProt P11362); test: Ba/F3-FGFR1 (minus IL3) cellular proliferation assay, Alamar Blue; assay type: cell-based
T1 construct: BAF3-FGFR1 (MIN IL3) pIC50; other: minus IL3
In short: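 Viability was measured by resazurin reduction (fluorescence, 540 nm excitation/590 nm emission) after a 4 h Alamar Blue incubation. This followed 24 h of compound treatment at 37 °C, 5% CO2, of 20000 FGFR1-transfected Ba/F3 cells per well in 10% FBS RPMI-1640.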

[2] = system: Ba/F3-FGFR1-transfected cells; test: Ba/F3-FGFR1 (plus IL3) cellular proliferation assay, counterscreen with 10 ng/ml murine IL3; assay type: cell-based; details: plus IL3 (10 ng/ml murine IL3, counterscreen); read-out: BAF3-FGFR1 (PLUS IL3) pIC50 (converted)
In short: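 Ba/F3-FGFR1 cells (20000/well) in RPMI-1640 with 10% FBS exposed to compound for 24 h at 37° C., 5% CO2, then Alamar Blue (resazurin) added for 4 h; fluorescence read at ex 540/em 590 nm. Counterscreen run identically with 10 ng/ml murine IL3.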

[3] = molecular target: T2, Ba/F3-FGFR3-transfected cells (Homo sapiens, UniProt P22607); test: Ba/F3-FGFR3 (minus IL3) cellular proliferation assay, Alamar Blue; assay type: cell-based
T2 construct: BAF3-FGFR3 (MIN IL3) pIC50; other: minus IL3
In short: (§1)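 Viability readout was resazurin reduction (ex 540/em 590 nm) after 4 h, following 24 h compound treatment at 37 °C of FGFR3-transfected Ba/F3 cells (20000/well, RPMI-1640/10% FBS). IL3-dependent counterscreen used identical conditions plus 10 ng/ml murine IL3.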

[4] = system: Ba/F3-FGFR3-transfected cells; test: Ba/F3-FGFR3 (plus IL3) cellular proliferation assay, counterscreen with 10 ng/ml murine IL3; assay type: cell-based; details: plus IL3 (10 ng/ml murine IL3, counterscreen); read-out: BAF3-FGFR3 (PLUS IL3) pIC50 (converted)
In short: as §1

[5] = molecular target: Ba/F3-FGFR4-transfected cells (Homo sapiens, UniProt P22455); test: Ba/F3-FGFR4 cellular proliferation assay, Alamar Blue; assay type: cell-based
In short: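 Ba/F3-FGFR4 cells (20000/well) in phenol red-free RPMI-1640 with 10% FBS are exposed to compound for 24 h at 37 °C, 5% CO2. Alamar Blue (resazurin) is then added for 4 h and fluorescence read at ex 540/em 590 nm.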

Ba/F3-FGFR4-transfected cells, sequence (P22455 whole entry, change not shown): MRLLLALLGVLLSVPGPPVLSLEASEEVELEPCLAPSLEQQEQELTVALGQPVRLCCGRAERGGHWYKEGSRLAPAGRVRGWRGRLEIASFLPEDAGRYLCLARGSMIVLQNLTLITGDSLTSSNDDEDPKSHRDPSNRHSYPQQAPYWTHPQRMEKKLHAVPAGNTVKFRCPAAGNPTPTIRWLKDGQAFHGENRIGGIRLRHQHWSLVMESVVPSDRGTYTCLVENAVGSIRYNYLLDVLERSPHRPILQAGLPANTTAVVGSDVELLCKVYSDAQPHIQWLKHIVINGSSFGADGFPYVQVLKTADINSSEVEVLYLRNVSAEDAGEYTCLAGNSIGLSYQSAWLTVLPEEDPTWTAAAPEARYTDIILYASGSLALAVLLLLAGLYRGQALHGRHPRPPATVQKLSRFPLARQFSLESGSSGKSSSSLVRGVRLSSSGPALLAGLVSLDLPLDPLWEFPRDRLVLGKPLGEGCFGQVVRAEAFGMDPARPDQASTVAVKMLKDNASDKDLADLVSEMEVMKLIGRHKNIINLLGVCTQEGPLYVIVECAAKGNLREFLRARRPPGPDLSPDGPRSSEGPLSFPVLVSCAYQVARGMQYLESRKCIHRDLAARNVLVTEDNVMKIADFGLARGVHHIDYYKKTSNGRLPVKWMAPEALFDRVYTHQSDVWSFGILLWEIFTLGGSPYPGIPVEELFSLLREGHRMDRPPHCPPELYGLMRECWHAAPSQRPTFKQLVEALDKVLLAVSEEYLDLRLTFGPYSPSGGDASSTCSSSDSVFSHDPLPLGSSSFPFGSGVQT
T2 sequence (P22607 whole entry, change not shown): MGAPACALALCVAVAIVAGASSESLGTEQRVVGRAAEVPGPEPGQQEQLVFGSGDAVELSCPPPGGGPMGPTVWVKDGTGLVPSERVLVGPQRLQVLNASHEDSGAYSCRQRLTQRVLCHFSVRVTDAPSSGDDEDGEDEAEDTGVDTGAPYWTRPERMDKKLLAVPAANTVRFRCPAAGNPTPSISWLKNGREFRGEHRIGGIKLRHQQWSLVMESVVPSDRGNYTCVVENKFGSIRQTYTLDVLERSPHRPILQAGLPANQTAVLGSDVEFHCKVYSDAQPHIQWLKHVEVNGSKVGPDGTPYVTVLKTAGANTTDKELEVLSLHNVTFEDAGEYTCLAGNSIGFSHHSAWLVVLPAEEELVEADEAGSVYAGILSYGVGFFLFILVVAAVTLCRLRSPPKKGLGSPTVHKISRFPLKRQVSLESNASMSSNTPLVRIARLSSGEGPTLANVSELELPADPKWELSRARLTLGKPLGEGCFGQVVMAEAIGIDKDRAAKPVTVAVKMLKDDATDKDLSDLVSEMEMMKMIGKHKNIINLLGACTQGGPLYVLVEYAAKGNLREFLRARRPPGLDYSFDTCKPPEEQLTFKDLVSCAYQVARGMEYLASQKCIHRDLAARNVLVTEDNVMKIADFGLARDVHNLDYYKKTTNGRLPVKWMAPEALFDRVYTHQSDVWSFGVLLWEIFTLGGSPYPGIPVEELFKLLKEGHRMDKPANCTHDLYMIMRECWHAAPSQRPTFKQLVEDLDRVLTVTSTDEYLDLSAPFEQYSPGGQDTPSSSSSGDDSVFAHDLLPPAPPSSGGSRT
FGFR4 (h), sequence (P22455 22-802): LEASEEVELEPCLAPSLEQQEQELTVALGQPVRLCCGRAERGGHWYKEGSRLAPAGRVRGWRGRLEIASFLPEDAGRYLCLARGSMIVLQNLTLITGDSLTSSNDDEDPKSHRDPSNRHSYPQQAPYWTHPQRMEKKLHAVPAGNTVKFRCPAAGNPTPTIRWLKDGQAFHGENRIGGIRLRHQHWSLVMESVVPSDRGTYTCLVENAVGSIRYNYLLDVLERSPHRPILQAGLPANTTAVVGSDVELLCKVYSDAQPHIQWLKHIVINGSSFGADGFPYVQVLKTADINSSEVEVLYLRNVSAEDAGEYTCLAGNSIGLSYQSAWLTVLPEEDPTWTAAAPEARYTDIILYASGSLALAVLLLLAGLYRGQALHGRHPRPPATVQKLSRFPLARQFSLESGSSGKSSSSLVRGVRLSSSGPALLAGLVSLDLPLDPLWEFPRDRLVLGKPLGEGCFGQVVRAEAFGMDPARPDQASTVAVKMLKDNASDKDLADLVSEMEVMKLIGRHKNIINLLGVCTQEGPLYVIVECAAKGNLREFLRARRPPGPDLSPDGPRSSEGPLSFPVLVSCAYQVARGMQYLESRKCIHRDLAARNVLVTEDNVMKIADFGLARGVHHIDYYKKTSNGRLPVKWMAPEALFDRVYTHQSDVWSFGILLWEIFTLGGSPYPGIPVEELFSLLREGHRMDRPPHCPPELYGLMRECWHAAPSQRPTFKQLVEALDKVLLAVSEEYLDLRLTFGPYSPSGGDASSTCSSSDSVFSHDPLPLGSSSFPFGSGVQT
T1 sequence (P11362 whole entry, change not shown): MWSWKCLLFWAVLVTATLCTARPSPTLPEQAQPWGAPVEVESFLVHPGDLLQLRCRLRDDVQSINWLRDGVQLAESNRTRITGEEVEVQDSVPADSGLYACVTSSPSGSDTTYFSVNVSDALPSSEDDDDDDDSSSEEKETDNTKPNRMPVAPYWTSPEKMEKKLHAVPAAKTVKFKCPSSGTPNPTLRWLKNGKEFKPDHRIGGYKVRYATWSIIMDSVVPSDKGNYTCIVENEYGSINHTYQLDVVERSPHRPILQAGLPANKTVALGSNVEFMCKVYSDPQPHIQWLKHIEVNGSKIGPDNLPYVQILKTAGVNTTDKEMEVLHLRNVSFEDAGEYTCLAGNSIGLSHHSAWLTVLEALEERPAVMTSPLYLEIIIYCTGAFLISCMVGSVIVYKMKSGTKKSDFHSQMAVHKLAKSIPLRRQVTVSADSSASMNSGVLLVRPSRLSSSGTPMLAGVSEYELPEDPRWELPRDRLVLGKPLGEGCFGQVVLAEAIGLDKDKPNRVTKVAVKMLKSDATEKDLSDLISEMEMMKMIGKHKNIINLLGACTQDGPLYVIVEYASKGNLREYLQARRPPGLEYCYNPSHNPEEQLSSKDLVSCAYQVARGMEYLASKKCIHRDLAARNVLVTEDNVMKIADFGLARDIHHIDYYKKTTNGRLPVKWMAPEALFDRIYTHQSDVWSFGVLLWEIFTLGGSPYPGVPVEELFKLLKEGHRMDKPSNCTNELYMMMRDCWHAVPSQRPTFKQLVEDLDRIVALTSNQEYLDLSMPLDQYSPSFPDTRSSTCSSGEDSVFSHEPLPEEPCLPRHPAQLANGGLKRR
FGFR3 (h), sequence (P22607 23-806): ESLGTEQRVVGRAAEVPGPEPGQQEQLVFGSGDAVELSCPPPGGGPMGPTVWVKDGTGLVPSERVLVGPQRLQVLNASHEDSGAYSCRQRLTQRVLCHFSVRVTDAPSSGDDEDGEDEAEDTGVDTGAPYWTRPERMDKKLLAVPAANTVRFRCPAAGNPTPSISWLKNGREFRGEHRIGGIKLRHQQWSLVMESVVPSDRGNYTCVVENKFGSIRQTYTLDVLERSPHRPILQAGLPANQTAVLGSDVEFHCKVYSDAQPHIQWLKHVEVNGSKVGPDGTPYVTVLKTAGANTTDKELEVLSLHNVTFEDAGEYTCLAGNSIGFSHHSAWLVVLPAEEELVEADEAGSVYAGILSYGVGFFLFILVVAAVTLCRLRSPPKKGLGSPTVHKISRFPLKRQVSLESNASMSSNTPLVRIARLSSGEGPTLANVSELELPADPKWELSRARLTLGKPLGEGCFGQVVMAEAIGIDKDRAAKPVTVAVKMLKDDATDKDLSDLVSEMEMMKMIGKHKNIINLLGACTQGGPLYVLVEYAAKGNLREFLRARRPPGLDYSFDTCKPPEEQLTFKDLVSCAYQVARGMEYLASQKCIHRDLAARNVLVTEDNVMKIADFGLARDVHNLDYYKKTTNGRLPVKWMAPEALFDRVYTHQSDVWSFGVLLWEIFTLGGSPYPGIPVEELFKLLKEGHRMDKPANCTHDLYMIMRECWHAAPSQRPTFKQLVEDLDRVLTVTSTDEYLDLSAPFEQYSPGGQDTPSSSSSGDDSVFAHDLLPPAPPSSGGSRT
FGFR1 (h), sequence (P11362 22-822): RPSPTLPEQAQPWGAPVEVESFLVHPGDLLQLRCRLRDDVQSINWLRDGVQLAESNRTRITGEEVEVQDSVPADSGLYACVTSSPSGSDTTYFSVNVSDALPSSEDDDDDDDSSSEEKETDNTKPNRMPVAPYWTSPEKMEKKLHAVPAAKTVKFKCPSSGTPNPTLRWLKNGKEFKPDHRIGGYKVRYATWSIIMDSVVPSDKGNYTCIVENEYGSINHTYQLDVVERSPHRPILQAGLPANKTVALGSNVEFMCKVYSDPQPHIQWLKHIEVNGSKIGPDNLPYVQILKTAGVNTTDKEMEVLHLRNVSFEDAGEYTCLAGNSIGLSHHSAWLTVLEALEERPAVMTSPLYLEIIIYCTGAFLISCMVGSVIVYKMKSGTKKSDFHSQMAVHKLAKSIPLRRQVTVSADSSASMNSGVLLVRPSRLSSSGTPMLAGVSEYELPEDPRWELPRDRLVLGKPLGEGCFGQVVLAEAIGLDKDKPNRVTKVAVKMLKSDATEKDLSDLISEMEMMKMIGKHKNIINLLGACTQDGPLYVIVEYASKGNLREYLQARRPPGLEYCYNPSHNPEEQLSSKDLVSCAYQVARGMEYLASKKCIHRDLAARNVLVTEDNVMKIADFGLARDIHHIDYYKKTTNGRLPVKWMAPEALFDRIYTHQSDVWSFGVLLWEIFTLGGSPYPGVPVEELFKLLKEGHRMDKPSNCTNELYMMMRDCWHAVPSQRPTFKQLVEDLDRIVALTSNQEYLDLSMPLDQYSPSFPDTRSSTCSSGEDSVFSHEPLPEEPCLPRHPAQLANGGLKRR

| Compound | IC50 (FGFR1 (h)) [nM] | IC50 (FGFR3 (h)) [nM] | pIC50 (FGFR4 (h)) | IC50 (KDR (h)) [nM] | BAF3-FGFR1 (MIN IL3) pIC50 [1] | IC50 [2] [nM] | BAF3-FGFR3 (MIN IL3) pIC50 [3] | IC50 [4] [nM] | BAF3-FGFR4 pIC50 [5] |
| --- | --- | --- | --- | --- | --- | --- | --- | --- | --- |
| COc1cc(OC)cc(N(CCN2CCCC2=O)c2ccc3ncc(-c4cnn(C)c4)nc3n2)c1 [Compound 151] | 38.9 | 10.7 | 7.04 | 126 | 5.56 | > 10000 | 5.72 | > 10000 | 5.49 |
| COc1cc(OC)cc(N(Cc2ncc[nH]2)c2ccc3ncc(-c4ccccc4)nc3n2)c1 [Compound 152] | 1.07 | 1.15 | 8.85 | 15.1 | 7.96 | > 10000 | 8.08 | > 10000 | 7.46 |
| COc1cc(OC)c(F)c(/N=c2\ccc3ncc(-c4cnn(C)c4)nc3n2CC2CCOC2)c1F (stereo not drawn) [Compound 154] | 0.661 | 0.676 | 9.11 | 1.62 | 7.71 | > 10000 | 7.59 | > 10000 | ~7.6 |
| COc1cc(/N=c2\ccc3ncc(-c4cnn(C)c4)nc3n2Cc2cn[nH]c2)c(F)c(OC)c1 [Compound 155] | 0.55 | 0.407 | 9.49 | 2.45 | 8.13 | > 10000 | 8.07 | > 10000 | 8.09 |
| COc1cc(/N=c2\ccc3ncc(-c4cnn(C)c4)nc3n2CCN2CCCC2=O)c(F)c(OC)c1 [Compound 156] | 2.95 | 1.91 | 8.16 | 29.5 | 7.17 | > 10000 | 7.27 | > 10000 | 6.68 |
| COc1cc(OC)c(F)c(N(CCN2CCCC2=O)c2ccc3ncc(-c4cnn(C)c4)nc3n2)c1 [Compound 157] | 10.5 | 5.62 | 7.58 | 46.8 | 6.17 | > 10000 | ~6.66 | > 10000 | 6.08 |
| COc1cc(/N=c2\ccc3ncc(-c4cnn(C)c4)nc3n2CC2CCC(=O)N2C)c(F)c(OC)c1 (stereo not drawn) [Compound 158] | 1.74 | 1.29 | 8.60 | 6.61 | 7.18 | > 10000 | 7.20 | > 10000 | 6.78 |
| COc1cc(OC)c(F)c(N(CC2CCC(=O)N2C)c2ccc3ncc(-c4cnn(C)c4)nc3n2)c1 (stereo not drawn) [Compound 159] | 8.51 | 5.89 | 7.69 | 83.2 | 6.65 | > 10000 | 6.30 | > 10000 | 6.20 |
| COc1cc(OC)c(F)c(/N=c2\ccc3ncc(-c4cnn(C)c4)nc3n2CCN(C2COC2)C2COC2)c1F [Compound 164] | 1.02 | 0.933 | 9.01 | 3.39 | 8.01 | > 10000 | 7.89 | > 10000 | ~7.66 |
| COc1cc(/N=c2\ccc3ncc(-c4cnn(C)c4)nc3n2CC2CCCOC2)cc(OC)c1 (stereo not drawn) [Compound 165] | 1.15 | 1.12 | 8.69 | 6.31 | 7.38 | > 10000 | 7.32 | > 10000 | 7.13 |
| COc1cc(OC)cc(N(CC2CCCOC2)c2ccc3ncc(-c4cnn(C)c4)nc3n2)c1 (stereo not drawn) [Compound 166] | 5.62 | 2.63 | 8.03 | 55 | 6.72 | > 10000 | 6.65 | > 10000 | 6.24 |
| COc1cc(/N=c2\ccc3ncc(-c4cnn(C)c4)nc3n2CCN)c(F)c(OC)c1 [Compound 167] | 1.86 | 2.09 | 8.38 | 16.2 | 6.74 | > 10000 | 6.72 | > 10000 | 6.31 |
| COc1cc(OC)c(F)c(N(CCN)c2ccc3ncc(-c4cnn(C)c4)nc3n2)c1 [Compound 168] | 1.7 | 3.16 | 8.34 | 15.8 | 7.48 | > 10000 | 6.76 | > 10000 | 6.72 |
| COc1cc(OC)c(F)c(N(CC#N)c2ccc3ncc(-c4cnn(C)c4)nc3n2)c1F [Compound 173] | ~0.977 | 0.437 | 9.14 | 8.91 | 8.00 | > 10000 | ~8.04 | > 10000 | 7.61 |
| COc1cc(OC)cc(N(Cc2nc(OC)cc(OC)n2)c2ccc3ncc(-c4cnn(C)c4)nc3n2)c1 [Compound 174] | ~39.8 | 36.3 | 7.11 | 89.1 | 5.68 | > 10000 | 5.57 | > 10000 | 5.45 |
| Cn1cc(-c2cnc3ccc(N(Cc4ncc[nH]4)c4c(F)c(F)cc(F)c4F)nc3n2)cn1 [Compound 175] | 4.07 | 2 | 8.32 | 219 | 6.87 | > 10000 | 6.86 | > 10000 | 6.75 |
| COc1cc(OC)c(F)c(N(Cc2ncco2)c2ccc3ncc(-c4cnn(C)c4)nc3n2)c1 [Compound 177] | 1.78 | 1.07 | 8.61 | 10.5 | 7.22 | > 10000 | 7.10 | > 10000 | 6.79 |
| COc1cc(OC)c(F)c(N(Cc2c(C)noc2C)c2ccc3ncc(-c4cnn(C)c4)nc3n2)c1 [Compound 178] | 11.2 | 3.55 | 7.71 | 61.7 | 6.20 | > 10000 | 6.29 | > 10000 | 5.83 |
| COc1cc(/N=c2\ccc3ncc(-c4cnn(C)c4)nc3n2Cc2c(C)noc2C)c(F)c(OC)c1 [Compound 179] | 2.95 | 1.26 | 8.46 | 12.3 | <5.52 | > 3020 | <5.52 | > 3020 | <5.52 |
| COc1cc(OC)c(F)c(N(Cc2cc(C)on2)c2ccc3ncc(-c4cnn(C)c4)nc3n2)c1 [Compound 180] | 1.1 | 1.07 | 8.78 | 9.55 | 7.43 | > 10000 | 7.36 | > 10000 | 7.10 |
| COc1cc(/N=c2\ccc3ncc(-c4cnn(C)c4)nc3n2Cc2cc(C)on2)c(F)c(OC)c1 [Compound 181] | 1.51 | 1.55 | 8.98 | 6.76 | 7.76 | > 10000 | 8.05 | > 10000 | 7.55 |
